Tested on: Pseudomonas aeruginosa ATCC 15442
Experiment: Biofilm test on glass surfaces (microscope slides, SafraninO staining)
Assay type: cell-based
Conditions: 6 hours incubation; for biofilm reduction (relative to the control without active substance): first range finding experiments (FIG. 1)
Procedure: (b) Use of Alkyloxylactones for the Reduction of Biofilms on Glass Surfaces.
The germ Pseudomonas aeruginosa ATCC 15442 is cultivated at 37° C. on Caso-Agar overnight. A CFU (Colony Eorming Unit) of solid medium is incubated in 50 ml Caso-broth at 37° C. for 7 hours and 150 rpm (1. passage). 100 μl germs from the washed liquid culture are carried over into 50 ml fresh Caso-nutrient medium and incubated at 37° C. for approximately 16 hours and 150 rpm. (2. Passage). A germ count of 10^6 CFU/ml is used from this second passage in the biofilm test. For the biofilm test, the germs in the above-mentioned concentration, together with a diluted complete medium (20 times with DGHM-water diluted TBY), are pipetted into a micro-titration plate (6-position chamber), which is used as the miniaturized biofilm test system. The active substances under test are added in the desired concentration to the mixture (3 ml). As controls, first, attempts were made with active substances, but without germs, as the active substances could already have an inherent color (negative control); secondly, diluted complete medium with germs, but without the active substances were also used as controls. In addition, 1 sterile glass plate (microscope slide), size 18×18, on the surface of which the biofilm growth is investigated, is placed into each of the 6-position chambers. For each starting material, triple determinations are carried out, i.e. three glass slides are investigated per starting material. The 6-position plates are shaken for 6 or 24 hours at 30° C. and 60 rpm. After the predetermined incubation times, 1 ml per starting material are removed for germ count determination, diluted in trypton-NaCl solution and plated out on Caso-Agar. The resulting plates are incubated for 24 hours at 37° C. and then counted. The slide glasses are taken out of the 6-positions to be dried at room temperature and then dyed in new 6-positions with 3 ml 0.01% SafraninO-solution (made up in sterile water) for 15 minutes. The colorant solution is then siphoned off, non-bound colorant is removed with water from the slide glasses and the colored slide glasses dried. The colored and dried surfaces of the slide glasses are scanned and evaluated using Corel Draw paint 9. In order to be able to subtract the background value (of the glass) from the measured value, additional untreated slide glasses are also scanned.

[1] = 100 ppm, DMSO control = 100% (FIG. 2)
[2] = 50 ppm and 100 ppm, control without active substance = 100% (FIG. 1)

CCCCCCCOC1C(=O)OCC1(C)C (stereo not drawn) [Example 188, Heptyloxypantolactone]
biofilm reduction (with respect to the DMSO control) [1]: more than 40%

CCCCCCCCO[C@H]1C(=O)OCC1(C)C [Example H33, a-Octyloxy-D-(−)-pantolactone]
biofilm reduction (relative to the control without active substance) (100 ppm): more than 30%

CCCCOC1CCOC1=O (stereo not drawn) [Example H99, butyloxybutyrolactone]
effect on biofilm formation [2]: only a moderate effect

CCCCOC1C(=O)OCC1(C)C (stereo not drawn) [Example H123, butyloxypantolactone]
effect on biofilm formation [2]: only a moderate effect

CCCCCCCCOC1CCOC1=O (stereo not drawn) [Example H128, a-Octyloxy-γ-butyrolactone]
biofilm reduction (relative to the control without active substance) (100 ppm): approximately 40%
reduction in biofilm inhibition (on increasing the concentration of active substance, it precipitated out, result not shown): 20%

CCCCCCCCCCCCCCCCOC1CCOC1=O (stereo not drawn) [hexadecylbutyrolactone, a-hexadecyloxy-γ-butyrolactone]
effect on biofilm formation [1]: best biofilm reduction

O=C1OCCC1O (stereo not drawn) [hydroxybutyrolactone, Hydroxybutyrolactone, reference compound]
effect on biofilm formation [1]: did not show any notable effect

CC1(C)COC(=O)C1O (stereo not drawn) [pantolactone, Pantolactone, reference compound]
effect on biofilm formation [1]: did not show any notable effect

Reference: patent US7825268B2, “Alkoxylactones, alkoxylactams and alkoxythiolactams for controlling processes based on microbial interaction” (Henkel AG & Co. KGaA, priority 2003, dated 2010)
